Tested on: 186277-243-T-J2-PDC complex spheroid growth, % test/control
Test: Anticancer human tumor 186277-243-T-J2-PDC patient-derived colon adenocarcinoma cell line growth inhibition [Asc]
Settings: for IC50: curve of first compound; for viability, T/C: stronger effect = lower value; active means viability on the fitted dose curve at most 10% of control; inactive means the rest
Outline: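 Spheroid model: tumor line + HUVEC + hMSC. Single agents and combinations; top conc. at/near clinical Cmax (10 microM if undetermined), half-log dilutions. DMSO stocks at 800-fold test concentration.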

[1] = second compound 0.01 µM, first compound 0.0316 µM
[2] = second compound 0.01 µM, first compound 0.1 µM
[3] = second compound 0.0316 µM, first compound 0.0316 µM
[4] = second compound 0.0316 µM, first compound 0.1 µM
[5] = second compound 0.1 µM, first compound 0.0316 µM
[6] = second compound 0.1 µM, first compound 0.1 µM
[7] = second compound 0.316 µM, first compound 0.0316 µM
[8] = second compound 0.316 µM, first compound 0.1 µM
[9] = second compound 1 µM, first compound 0.0316 µM
[10] = second compound 1 µM, first compound 0.1 µM
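Further: spheroids exposed to agents for 7 days.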
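Wherever viability, T/C is given: 100% = DMSO vehicle control wells.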

Cc1nc(N2CCC3(CC2)COC(C)C3N)c(CO)nc1Sc1ccnc(N)c1Cl (stereo not given) + CCN1C(C(=O)NC23CCC(C(=O)O)(CC2)CC3)C(c2cccc(Cl)c2F)C2(C(=O)Nc3cc(Cl)ccc32)C12CCCCC2
> 3000 nM: IC50 (second compound 0.03 µM) | IC50 (second compound 0.0949 µM)
inactive: viability, T/C (second compound 0.03 µM, first compound 0.00949 µM) 122% | viability, T/C (second compound 0.03 µM, first compound 0.03 µM) 127% | viability, T/C (second compound 0.03 µM, first compound 0.0949 µM) 105% | viability, T/C (second compound 0.03 µM, first compound 0.3 µM) 113% | viability, T/C (second compound 0.03 µM, first compound 0.949 µM) 90.9% | viability, T/C (second compound 0.03 µM, first compound 3 µM) 90.7% | viability, T/C (second compound 0.0949 µM, first compound 0.00949 µM) 95.1% | viability, T/C (second compound 0.0949 µM, first compound 0.03 µM) 89.2% | viability, T/C (second compound 0.0949 µM, first compound 0.0949 µM) 84.5% | viability, T/C (second compound 0.0949 µM, first compound 0.3 µM) 84.5% | viability, T/C (second compound 0.0949 µM, first compound 0.949 µM) 71.9% | viability, T/C (second compound 0.0949 µM, first compound 3 µM) 57.8% | viability, T/C (second compound 0.3 µM, first compound 0.00949 µM) 63.2% | viability, T/C (second compound 0.3 µM, first compound 0.03 µM) 67.2% | viability, T/C (second compound 0.3 µM, first compound 0.0949 µM) 57.3% | viability, T/C (second compound 0.3 µM, first compound 0.3 µM) 48.6% | viability, T/C (second compound 0.3 µM, first compound 0.949 µM) 39.6% | viability, T/C (second compound 0.3 µM, first compound 3 µM) 28.3% | viability, T/C (second compound 0.949 µM, first compound 0.00949 µM) 45.9% | viability, T/C (second compound 0.949 µM, first compound 0.03 µM) 43.6% | viability, T/C (second compound 0.949 µM, first compound 0.0949 µM) 40.8% | viability, T/C (second compound 0.949 µM, first compound 0.3 µM) 33.1% | viability, T/C (second compound 0.949 µM, first compound 0.949 µM) 26.1% | viability, T/C (second compound 0.949 µM, first compound 3 µM) 19.1% | viability, T/C (second compound 3 µM, first compound 0.00949 µM) 26.8% | viability, T/C (second compound 3 µM, first compound 0.03 µM) 27.6% | viability, T/C (second compound 3 µM, first compound 0.0949 µM) 22.1% | viability, T/C (second compound 3 µM, first compound 0.3 µM) 19.4% | viability, T/C (second compound 3 µM, first compound 0.949 µM) 11.4%
active: viability, T/C (second compound 3 µM, first compound 3 µM) 9.13%
< 9.49 nM: IC50 (second compound 0.949 µM) | IC50 (second compound 3 µM)
289 nM: IC50 (second compound 0.3 µM)

Cn1ncnc1[C@H]1c2n[nH]c(=O)c3cc(F)cc(c23)N[C@@H]1c1ccc(F)cc1 + CNC(C)C(=O)NC1CN(S(=O)(=O)c2cccc(S(=O)(=O)N3CCC4CCC(C(=O)NC(c5ccccc5)c5ccccc5)N4C(=O)C(NC(=O)C(C)NC)C3)c2)CCC2CCC(C(=O)NC(c3ccccc3)c3ccccc3)N2C1=O
> 100 nM: IC50 (second compound 0.01 µM) | IC50 (second compound 0.0316 µM) | IC50 (second compound 0.1 µM) | IC50 (second compound 0.316 µM) | IC50 (second compound 1 µM)
inactive: viability, T/C (second compound 0.01 µM, first compound 0.000316 µM) 100% | viability, T/C (second compound 0.01 µM, first compound 0.001 µM) 97.5% | viability, T/C (second compound 0.01 µM, first compound 0.00316 µM) 106% | viability, T/C (second compound 0.01 µM, first compound 0.01 µM) 119% | viability, T/C [1] 144% | viability, T/C [2] 144% | viability, T/C (second compound 0.0316 µM, first compound 0.000316 µM) 108% | viability, T/C (second compound 0.0316 µM, first compound 0.001 µM) 103% | viability, T/C (second compound 0.0316 µM, first compound 0.00316 µM) 129% | viability, T/C (second compound 0.0316 µM, first compound 0.01 µM) 124% | viability, T/C [3] 133% | viability, T/C [4] 155% | viability, T/C (second compound 0.1 µM, first compound 0.000316 µM) 121% | viability, T/C (second compound 0.1 µM, first compound 0.001 µM) 115% | viability, T/C (second compound 0.1 µM, first compound 0.00316 µM) 124% | viability, T/C (second compound 0.1 µM, first compound 0.01 µM) 127% | viability, T/C [5] 146% | viability, T/C [6] 155% | viability, T/C (second compound 0.316 µM, first compound 0.000316 µM) 101% | viability, T/C (second compound 0.316 µM, first compound 0.001 µM) 101% | viability, T/C (second compound 0.316 µM, first compound 0.00316 µM) 108% | viability, T/C (second compound 0.316 µM, first compound 0.01 µM) 128% | viability, T/C [7] 147% | viability, T/C [8] 159% | viability, T/C (second compound 1 µM, first compound 0.000316 µM) 91.3% | viability, T/C (second compound 1 µM, first compound 0.001 µM) 115% | viability, T/C (second compound 1 µM, first compound 0.00316 µM) 104% | viability, T/C (second compound 1 µM, first compound 0.01 µM) 131% | viability, T/C [9] 130% | viability, T/C [10] 149%

O=C(c1cc(Cc2n[nH]c(=O)c3ccccc23)ccc1F)N1CCN(C(=O)C2CC2)CC1 + CNC(C)C(=O)NC1CN(S(=O)(=O)c2cccc(S(=O)(=O)N3CCC4CCC(C(=O)NC(c5ccccc5)c5ccccc5)N4C(=O)C(NC(=O)C(C)NC)C3)c2)CCC2CCC(C(=O)NC(c3ccccc3)c3ccccc3)N2C1=O
> 10000 nM: IC50 (second compound 0.01 µM) | IC50 (second compound 0.0316 µM) | IC50 (second compound 0.1 µM) | IC50 (second compound 0.316 µM) | IC50 (second compound 1 µM)
inactive: viability, T/C [1] 95.4% | viability, T/C [2] 116% | viability, T/C (second compound 0.01 µM, first compound 0.316 µM) 111% | viability, T/C (second compound 0.01 µM, first compound 1 µM) 120% | viability, T/C (second compound 0.01 µM, first compound 3.16 µM) 121% | viability, T/C (second compound 0.01 µM, first compound 10 µM) 147% | viability, T/C [3] 114% | viability, T/C [4] 102% | viability, T/C (second compound 0.0316 µM, first compound 0.316 µM) 99.1% | viability, T/C (second compound 0.0316 µM, first compound 1 µM) 114% | viability, T/C (second compound 0.0316 µM, first compound 3.16 µM) 123% | viability, T/C (second compound 0.0316 µM, first compound 10 µM) 156% | viability, T/C [5] 111% | viability, T/C [6] 112% | viability, T/C (second compound 0.1 µM, first compound 0.316 µM) 114% | viability, T/C (second compound 0.1 µM, first compound 1 µM) 123% | viability, T/C (second compound 0.1 µM, first compound 3.16 µM) 129% | viability, T/C (second compound 0.1 µM, first compound 10 µM) 149% | viability, T/C [7] 98.2% | viability, T/C [8] 104% | viability, T/C (second compound 0.316 µM, first compound 0.316 µM) 104% | viability, T/C (second compound 0.316 µM, first compound 1 µM) 117% | viability, T/C (second compound 0.316 µM, first compound 3.16 µM) 142% | viability, T/C (second compound 0.316 µM, first compound 10 µM) 148% | viability, T/C [9] 99.3% | viability, T/C [10] 111% | viability, T/C (second compound 1 µM, first compound 0.316 µM) 106% | viability, T/C (second compound 1 µM, first compound 1 µM) 114% | viability, T/C (second compound 1 µM, first compound 3.16 µM) 125% | viability, T/C (second compound 1 µM, first compound 10 µM) 159%

From PubChem BioAssay AID1963426 (Molecular Pharmacology Branch, DTP, NCI, 2024)
